Reference: US9981956B2, “Small molecule inhibitors of fibrosis” (THE CALIFORNIA INSTITUTE FOR BIOMEDICAL RESEARCH, priority 2013, dated 2018)
Like-named read-outs stand apart in the source and are kept apart here.

Experiments:
[1] = tested on: Candida albicans (ATCC 10231); test: Candida albicans anti-fungal MIC potency determination; format: cell-based
Procedure: The wild type Candida albicans (ATCC 10231) was used and Fluconazole, amphotericin B, itraconazole and terbinafine were purchased from Sigma and used as positive controls.
The highest assay concentration for all test compounds and fluconazole was 100 μM. Fluconazole was also tested at the highest concentration of 64 μg/ml, and amphotercin B and terbinafine at 16 and 64 μg/ml. The test compounds were in DMSO stock solution at a concentration of 10 mM. Two stock solutions in DMSO were prepared for fluconazole at 10 mM and 6.4 mg/ml. Amphotericin B and terbinafine stock solutions in DMSO were prepared at 1.6 and 6.4 mg/ml.
Serial dilution of 100× stock solutions: 4 μl of stock solution was added into 196 μl of RPMI1640 (MOPS buffered and free of HEPES and sodium bicarbonate) in the first well of a row of a sterile u-bottom 96-well plate. The rest of the wells was filled with 100 μl RPMI1640. The 2-fold serial dilution was made sequentially by transferring 100 μl solution to the next well and mixing by pipetting, until 11th well. The extra 100 μl in 11th well was discarded. Therefore, the compound wells contained 100 μl of 2× of testing concentrations of drugs in RPMI1640. The 12th well was filled with only 100 μl RPMI1640.
C. albicans 3147 (ATCC 10231) glycerol frozen stock was streaked on Sabouraud dextrose agar (SDA). The plate was incubated at 35° C. ambient atmosphere for 20 h. Single colonies were suspended into sterile saline until turbidity reached 0.1 (1-5×10^6 CFU/ml) using a Siemens turbidity meter. This suspension was diluted 50× in RPMI1640 in a 15 ml conical, and then it was further diluted 20× in RPMI1640 in a 50 ml conical. This gave 1-5×10^3 CFU/ml suspension and was used as inoculum. The cell density in inoculum was plate-counted to be 4.94×10^3 CFU/ml.
The plates were incubated at 35° C. in ambient atmosphere. The photos were taken at 24 h and 48 h. The MIC end points for fluconazole and amphotericin B were read according to the M27-A3 protocol (Reference Method for Broth Dilution Antifungal Susceptibility Testing of Yeasts; Approved Standard-Third Edition, M27-A3 standard published Jan. 1, 2008 by Clinical and Laboratory Standards Institute). The MIC for compounds for test cmpds and terbinafine (not mentioned in M27-A3 protcol) were read as if they were azoles.

PXR = target: T1, PXR (Homo sapiens, UniProt O75469); test: PXR (Cyp 3A4) activation assay in DPX2 cells; format: cell-based; details: compounds tested at 10, 1 and 0.1 μM, read-out: PXR activation (fold induction compared to Rifampicin)
T1 construct: expressed in transfected cells; host or cells: DPX2 cells
T1 sequence (O75469 1-434): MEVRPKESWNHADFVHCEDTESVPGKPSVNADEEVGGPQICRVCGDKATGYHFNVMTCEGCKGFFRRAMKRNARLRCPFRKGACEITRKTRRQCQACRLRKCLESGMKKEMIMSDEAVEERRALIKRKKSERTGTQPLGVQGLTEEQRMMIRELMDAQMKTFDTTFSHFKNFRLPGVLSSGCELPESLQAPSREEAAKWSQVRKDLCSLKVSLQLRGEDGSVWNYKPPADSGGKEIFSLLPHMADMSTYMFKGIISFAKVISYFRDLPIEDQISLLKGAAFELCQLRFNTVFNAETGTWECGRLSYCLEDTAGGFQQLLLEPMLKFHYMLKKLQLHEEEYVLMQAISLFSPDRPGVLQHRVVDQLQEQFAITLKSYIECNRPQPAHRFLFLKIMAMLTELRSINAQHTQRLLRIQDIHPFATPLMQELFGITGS
Procedure: CYP3A4 metabolism was evaluated by using P450-Glo™ CYP3A4 Assay with Luciferin-IPA as the substrate of CYP3A4 and represented as RLU (Relative Luminescence Units). PXR activation was evaluated by using a luciferase detection reagent, ONE-Glo™ and represented as RLU. The luminescence light intensity was directly proportional to the extent of PXR activation and accompanying gene transcription in the DPX2 cells. Compounds were tested at 10, 1, and 0.1 μM in the assay. Fold of induction=(RLU/RFU of compound treated sample)/(RLU/RFU of vehicle treated sample), RFU was the signal of cell viability. RLU was the signal of CYP3A metabolism and PXR activation. 0.1% DMSO was used as vehicle. Cell viability was detected by using CellTiter-Fluor™ and represented as RFU (Relative Fluorescence Units).
Activation potency was defined as negative, weak, moderate and strong. Negative, weak, moderate and strong activators are those that give <15%, <40%, <69% and >70%, respectively, of the response produced by 10 μM RIF at 10 μM.

Cyp3A4 = Cyp3A4 (Homo sapiens, UniProt P08684); test: Cyp reversible inhibition assay (human liver microsomes)
Procedure: The purpose of this assay was to determine reversible inhibition of Cyp enzyme with a given compound using a substrate probe turnover as the surrogate for inhibition. This was done with human liver microsomes rather an isolated enzyme to account for metabolites of parent drug leading to a potential drug-drug interaction through Cyp inhibition. The substrate turnover (for example conversion of midazolam to hydroxyl midazolam) was monitored by LCMSMS (Q1/Q2=342.2/203.2). Test compounds were tested in a 7-point dose response curve starting from 50 μM to 50 nM (˜3-fold dilution series).
The detailed protocol was as follows: • Prepared test compounds and standard inhibitors working solution (100×) • Pulled microsomes out of the −80° C. freezer to thaw on ice, labeled with the date and put back to freezer immediately after using. • Added 20 μL of the substrate solutions to corresponding wells. • Added 20 μL PB to Blank wells. • Added 2 μL of the test compounds and positive control working solution to corresponding wells. • Added 2 μL MeOH to No Inhibitor wells and Blank wells. • Prepared HLM working solution. • Added 158 μL of the HLM working solution to all wells of incubation plate. • Pre-warmed the plate for about 10 min at 37° C. water bath. • Prepared NADPH cofactor solution. • Added 20 μL NADPH cofactor to all incubation wells. • Mixed and incubated for 10 minutes at 37° C. water bath. • At the time point, terminated the reaction by adding 400 μL cold stop solution (200 ng/mL Tolbutamide in ACN). • Centrifuged the samples at 4000 rpm for 20 minutes to precipitate protein. • Transferred 200 μL supernatant to 200 μL HPLC water and shook for 10 min. • Analyzed samples by LC/MS/MS.

[2] = ATCC10231, 24 h, read-out: C. Albicans MIC90 at 24 h
[3] = ATCC10231, 48 h, read-out: C. Albicans MIC90 at 48 h
[4] = Cyp 3A4 midazolam LCMS IC50, human liver microsomes, substrate midazolam
[5] = Cyp 3A4 testosterone LCMS IC50, human liver microsomes, substrate testosterone

Sequence of Cyp3A4 (P08684 whole entry): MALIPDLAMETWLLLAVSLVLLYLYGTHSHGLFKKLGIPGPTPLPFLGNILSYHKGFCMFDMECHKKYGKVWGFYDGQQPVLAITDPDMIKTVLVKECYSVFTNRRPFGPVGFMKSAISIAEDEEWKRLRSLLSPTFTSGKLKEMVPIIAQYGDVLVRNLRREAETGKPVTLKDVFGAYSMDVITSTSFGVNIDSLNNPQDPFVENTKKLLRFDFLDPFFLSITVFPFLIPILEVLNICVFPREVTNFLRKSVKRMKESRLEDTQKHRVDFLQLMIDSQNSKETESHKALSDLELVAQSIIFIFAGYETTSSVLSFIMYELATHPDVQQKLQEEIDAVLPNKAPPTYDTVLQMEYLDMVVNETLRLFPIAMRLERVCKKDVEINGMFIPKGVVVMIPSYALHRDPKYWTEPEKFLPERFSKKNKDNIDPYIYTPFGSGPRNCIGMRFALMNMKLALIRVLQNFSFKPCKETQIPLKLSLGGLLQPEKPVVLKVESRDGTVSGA

Compound | MIC90 [1, 2] [µM] | MIC90 [1, 3] [µM] | fold induction (PXR) | IC50 (Cyp3A4; [4]) [µM] | IC50 (Cyp3A4; [5]) [µM]
CCC(C)n1ncn(-c2ccc(N3CCN(c4ccc(OC[C@@H]5CO[C@@](Cc6ccnnc6)(c6ccc(Cl)cc6Cl)O5)cc4)CC3)cc2)c1=O (stereo partly drawn) [Compound 22] | > 100 | > 100 | ~1.1 | > 50 | > 50
CCC(C)n1ncn(-c2ccc(N3CCN(c4ccc(OC[C@@H]5CO[C@@](Cn6nccn6)(c6ccccc6)O5)cc4)CC3)cc2)c1=O (stereo partly drawn) [Compound 42] | > 100 | > 100 | ~1.5 | > 50 | > 50
CCC(C)n1ncn(-c2ccc(N3CCN(c4ccc(OC[C@@H]5CO[C@@](Cn6nccn6)(c6ccc(Cl)cc6Cl)O5)cc4)CC3)cc2)c1=O (stereo partly drawn) [Compound 15] | > 100 | > 100 | ~1 | > 50 | > 50
